# Tests used:
# C2C12 = test: Nucleotide concentration by HPLC during C2C12 differentiation; type: cell-based
# Experimental: Supernatant and cell lysate are collected every day. Cells were lysated with a homemade buffer (1 mM phenylmethylsulfonyl fluoride, 1 mM protease inhibitor cocktail, 1 mM sodium orthovanadate, 1 mM sodium fluoride and 1 mM β-glicerophospate) and supernatant was used directly. A heat shock step was done at 98° C. for 2 min, and to avoid adenosine degradation 1 μM EHNA was added at the time of heating. All samples were centrifuged at 13000 g for 10 min at 4° C. and supernatants were collected and stored at −80° C. until use. Inosine, adenosine, AMP, ADP and ATP concentrations were determined with high performance liquid chromatography (HPLC) using a liquid chromatograph with a reversed phase column (Agilent 1100 Series Liquid Chromatography) and an UV detector set at 254 nm. Buffer composed of 0.1 mol/L KH2PO4 (pH 7.5) and 18% acetonitrile was run at 1.5 ml/min for 20 min. Compounds were identified and quantified by their retention times and peak areas of known standards, calibrated by spectrophotometry. […] The results have been corrected and expressed as mean±SEM. All results were calculated as a percentage of controls without differentiation state.
# [1] = tested on: K/B×N serum transfer-induced arthritis; test: Motor activity tests in K/B×N serum transfer arthritis; type: in vivo, C57BL/6 mice
# Experimental: Physical activity tests were performed to assess the motor development of the mice during the arthritic process as follows:
# (§1) Ambulation in 12-week-old male C57BL/6 mice was recorded following the protocol described by Gibbs and Crosbie-Watson (2). Mice were placed in individual recording chambers and were allowed to freely move for 6 min. Distance traveled by each animal was determined using object tracking in Kinovea open-source video analysis software (V 0.9.5).
# (§2) The coordinated motor function of the four limbs was evaluated with the rotarod test (Rotarod, Harvard Apparatus, USA) with male C57BL/6 mice at the age of 12-week-old. Burgos et al. protocol was followed with modifications (76). Mice were first familiarized with the rotarod by letting them stay for 120s on the rod rotating at 4 and 6 rotations per minute (rpm). Motor activity was assessed by training the mice with an accelerated rotarod protocol of three trials, during which the rod accelerated from 4 rpm to 40 rpm within 5 min.
# as §1, with “(see references in ref. 44).” for “(2).”
# The Grip Strength Meter (Ugo Basile, #47200) was utilized to assess the grip strength peak of the forelimbs. The mouse held onto a bar, and the highest force exerted during the pull was measured in grams using a digital force transducer. In the test, the mouse gripped a bar attached to the force gauge. Next, an investigator pulled the mouse's tail backward. The gauge recorded tension at the moment the mouse released its forepaws from the bar.
# as §2, with “(see references in ref. 44).” for “(76).”
# [2] = tested on: K/B×N serum transfer-induced arthritis; test: Resolved inflammation model (30 days): tissues weight, inflammation, body weight; type: in vivo, C57BL/6J mice; conditions: for BAT, Absolute weight / Bodyweight, Absolute weight / EDL, Absolute weight / Gastronemius, Absolute weight / Tibialis, Absolute weight / WAT, Absolute weight: resolved model
# Experimental: Animals were sacrificed 30 days after serum transfer.
# Mice were weighted weekly. Development of arthritis was assessed daily, and the severity of arthritis was assessed in each paw on a 4-point scale defined as follows: 0=normal appearance, 1=localized edema/erythema over one surface of the paw, 2=edema/erythema involving more than one surface of the paw, and 3-4=marked edema/erythema involving the whole paw. Scores of all 4 paws were added for a composite score. All motor activity tests were performed prior to serum inoculation and at the highest point of inflammation. Mice were euthanized on day 16 for acute inflammation model or 30 days for Inflammation resolved model. A representative photo of body structure and muscle of pawn were taken on this day. Gastronemius was collected for protein and RNA extraction. Tibialis and soleus were included for freeze histology following the indications of H. Meng (see references in ref. 44). Bones were prepared for micro-computed tomography (microCT) and histology. Blood was drawn and serum was isolated for measurement of inflammatory cytokines and C-reactive protein (CPR).
# Body weight and muscle loss continue happening until day 30 when inflammation is resolved (FIG. 15), and dipy treatment continues reverting inflammation effects (FIG. 15A).
# [3] = tested on: K/B×N serum transfer-induced arthritis; test: Serum CRP ELISA and serum cytokine array; type: in vivo, C57BL/6J mice; conditions: arthritic mice + dipyridamole
# Experimental: For this purpose, they performed an array of protein expression of pro- and anti-inflammatory cytokines and chemokines in serum by using the Mouse Cytokine Array Q1 (RayBiotech, EEUU) which, simultaneously, detects 20 cytokines. The cytokines concentration was measured by fluorescence using GenePix following manufacture protocol for serum samples.
# CRP concentration was measured using the colorimetric Mouse CRP ELISA kit following manufacture protocol for serum samples (Crystal Chem, USA). Absorbance was measured at 450 nm using a microplate reader Tecan Spark 20M.
# Serum CRP were determined by Mouse CRP ELISA Kit (Crystal Chem, #80634), according to the instructions of the manufacturer. Absorbance was measured at 450 nm using a microplate reader Tecan Spark 20M.
# The cytokines concentration was measured by fluorescence using GenePix 4000B following manufacture protocol for serum and frozen samples. Serum samples were used at 2-fold sample dilution. Frozen gastronemius were crushed using a mortar and a pestle cooled with liquid nitrogen. Next, gastronemius were homogenized in a sonicator and the protein isolated in the supernatant quantified with BCA assay. We used 100 μL (1 mg/ml) of total gastronemius protein for cytokine and chemokine array assay.
# [4] = Body composition by DXA scan; type: in vivo, C57BL/6J mice; conditions: healthy mice, dipy treatment alone, 2 weeks
# Experimental: Previously to arthritis induction and sacrifice day, all mice underwent DXA scan. For DXA analysis, a Lunar PIXImus densitometer (software version 2.10) was calibrated using a hydroxyapatite phantom provided by the manufacturer (Lunar Corp, Madison, WI). Subsequently, mice were anesthetized and whole-body scans were conducted. Data analysis consisted of whole-body lean mass, fat mass, bone mineral density and bone mineral content. […] Previously to arthritis induction and sacrifice day, all mice underwent DXA scan. For DXA analysis, a Lunar PIXImus densitometer (software version 2.10) was calibrated using a hydroxyapatite phantom provided by the manufacturer (Lunar Corp, Madison, WI). Subsequently, mice were anesthetized and whole-body scans were conducted. Data analysis consisted of whole-body lean mass, fat mass, bone mineral density and bone mineral content.
# [5] = RA mice, dipy started 7 days after serum transfer
structure (smiles),measurement,setting,value
"OCCN(CCO)c1nc(N2CCCCC2)c2nc(N(CCO)CCO)nc(N3CCCCC3)c2n1 [dipyridamole, 2,6-bis(Diethanolamino)-4,8-dipiperidinopyrimido[5,4-d]pyrimidine]",Extracellular ATP,"C2C12; 1 μM each, day 4, control 14.7±0.5",did not modify
same,Intracellular adenosine,"C2C12; 1 μM, day 4, control 10.87±0.73",13.76 ± 1.13 nM
same,Intracellular inosine,"C2C12; 1 μM, day 4, control 11.07±0.54",14.17 ± 1.75 nM
same,Intracellular AMP,"C2C12; 1 μM, day 4, control 12.10±0.73",18.53 ± 1.13 nM
same,Extracellular adenosine,"C2C12; 1 μM, day 4 of differentiation, control 11.6±0.81",17.33 ± 0.47 nM
same,Ambulatory activity: distance travelled,"[1]; arthritic mice + dipyridamole, 2 weeks, arthritic 830±37, sham 1393±187",1203±53 cm
same,Two limb hanging test average score,"[1]; arthritic mice + dipyridamole, arthritic 3.6±3.3, sham 12±3",9.8±2
same,Rotarod latency to fall,"[1]; arthritic mice + dipyridamole, arthritic 43.3±5.4, sham 75.9±3.3",73.3±10.9 seg
same,"Motor tests (ambulatory activity, grip strength, two limb hanging, rotarod)","[1]; healthy mice, dipy alone vs sham",behave similar
same,Body weight,[2]; [5],body weight gain starting one week after first dipy dose
same,Joint inflammation,[2]; [5],complete reversion of inflammation
same,"BAT, Absolute weight",[2]; Dipy alone,0.15 ± 0.01 g
same,"Bodyweight, Absolute weight",[2]; Dipy alone,27 ± 0.5 g
same,"EDL, Absolute weight",[2]; Dipy alone,0.03 ± 0.01 g
same,"Gastronemius, Absolute weight",[2]; Dipy alone,0.39 ± 0.03 g
same,"Tibialis, Absolute weight",[2]; Dipy alone,0.16 ± 0.02 g
same,"WAT, Absolute weight",[2]; Dipy alone,0.14 ± 0.06 g
same,"BAT, Absolute weight",[2]; RA + Dipy D 0,0.17 ± 0.01 g
same,"EDL, Absolute weight",[2]; RA + Dipy D 0,0.03 ± 0.01 g
same,"Gastronemius, Absolute weight",[2]; RA + Dipy D 0,0.37 ± 0.02 g
same,"Tibialis, Absolute weight",[2]; RA + Dipy D 0,0.11 ± 0.01 g
same,"WAT, Absolute weight",[2]; RA + Dipy D 0,0.15 ± 0.08 g
same,"Bodyweight, Absolute weight",[2]; RA + Dipy D 0 (preventive),26.4 ± 1.31 g
same,"BAT, Absolute weight",[2]; RA + Dipy D 7,0.15 ± 0.01 g
same,"Gastronemius, Absolute weight",[2]; RA + Dipy D 7,0.33 ± 0.02 g
same,"Tibialis, Absolute weight",[2]; RA + Dipy D 7,0.05 ± 0.01 g
same,"WAT, Absolute weight",[2]; RA + Dipy D 7,0.18 ± 0.12 g
same,"Bodyweight, Absolute weight",[2]; RA + Dipy D 7 (therapeutic),27.26 ± 1.20 g
same,Serum IL-9,[3]; arthritic 4.3±1.8,13.1 ± 2.6 pg/mL
same,Serum VEGF,[3]; arthritic 90±13.1,221 ± 40.3 pg/mL
same,Serum IL-10,[3]; arthritic 117.6±5.2,166 ± 10 pg/mL
same,Serum CRP,"[3]; arthritic 4098±560, sham 2861±893",3543 ± 586 ng/mL
same,Body composition (DXA),[4],did not produced alterations in body composition

# Reference: patent US20260263468A1 (Fundación Instituto de Investigación Sanitaria Fundación …, priority 2023, published 2026)
